{
  "source": "paper PMC10149367",
  "about": "“The ferroptosis inducing compounds RSL3 and ML162 are not direct inhibitors of GPX4 but of TXNRD1” (Redox Biology, 2023)",
  "key": {"[1]": {"tested_on": "GPX4", "parameters": "method as in PMID 34788728", "conditions": "cited from earlier work"}, "[2]": {"biological_target": "T1, TXNRD1 (Homo sapiens, UniProt Q16881)", "T1 construct": "made in house", "T1 sequence (Q16881 1-499 isoform Q16881-5)": "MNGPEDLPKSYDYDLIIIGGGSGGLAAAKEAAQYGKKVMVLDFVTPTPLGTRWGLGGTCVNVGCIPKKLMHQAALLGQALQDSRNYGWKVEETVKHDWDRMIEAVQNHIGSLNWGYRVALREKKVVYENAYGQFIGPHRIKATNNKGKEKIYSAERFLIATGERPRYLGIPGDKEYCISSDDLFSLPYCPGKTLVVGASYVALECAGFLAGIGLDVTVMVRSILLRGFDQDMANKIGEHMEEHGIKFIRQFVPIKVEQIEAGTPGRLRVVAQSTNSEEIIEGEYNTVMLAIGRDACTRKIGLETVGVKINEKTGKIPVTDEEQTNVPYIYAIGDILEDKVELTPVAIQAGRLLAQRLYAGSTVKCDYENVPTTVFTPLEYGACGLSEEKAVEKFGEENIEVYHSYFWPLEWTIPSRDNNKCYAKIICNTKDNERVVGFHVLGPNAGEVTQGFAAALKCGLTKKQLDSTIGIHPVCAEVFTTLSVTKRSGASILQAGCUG", "assay": "TXNRD1 activity assay, pure enzyme (Fig. 1A)", "format": "biochemical", "experimental": "Recombinant human proteins—Recombinant human selenoprotein GPX and TXNRD isoenzymes as well as recombinant human GR were cloned, expressed, and purified as described previously [[26], [27], [28]].\nTXNRD1 selenite and DTNB assays were run as previously described [[26], [27], [28]]. Dose-response curves and IC50s were generated using Excel and GraphPad Prism. Briefly, initial slopes of NADPH consumption were normalized to DMSO controls and IC50s were calculated using log(inhibitor) vs. response—Variable slope (four parameters)."}, "[3]": {"tested_on": "malondialdehyde (MDA) and Ptgs2 mRNA levels", "parameters": "method as in PMID 32732975", "conditions": "C57BL/6 mice; rescued with Fer-1; cited from earlier work"}, "[4]": {"biological_target": "T2, GPX4 (Homo sapiens, UniProt P36969)", "T2 construct": "We thus performed immunoblot analyses for GPX4 in A549 cells; endogenous in cells; host or cells: A549", "T2 sequence (P36969 1-197)": "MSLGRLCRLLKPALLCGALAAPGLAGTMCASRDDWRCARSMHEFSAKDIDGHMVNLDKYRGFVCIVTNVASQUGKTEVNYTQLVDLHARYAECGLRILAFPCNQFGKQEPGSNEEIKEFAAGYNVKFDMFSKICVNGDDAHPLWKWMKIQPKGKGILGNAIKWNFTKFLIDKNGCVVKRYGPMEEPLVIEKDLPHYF", "assay": "GPX4 immunoblot of treated A549 cells", "format": "cell-based", "conditions": "A549, 3 μM, 24 h", "experimental": "Western blots—A549 and H1975 cells cultured for at least 72 h in the presence of 100 nM Na2SeO3 (Sigma) were seeded in 90 mm dishes (VWR) at 1 × 10^6 cells per dish for 18 h prior to main treatments. Four hours after seeding dishes, cells were pretreated with 2 μM Fer-1 for 14 h prior to adding RSL3, when indicated. After 14 h, main treatments with TRi-1, TRi-2, RSL3, ML162, ML210 or 0.03% v/v DMSO in doses indicated in each figure were added for 6 or 24 h. Total DMSO content was 0.05%. Cells were then scraped, washed in PBS, and suspended in 150–200 μL lysis buffer containing 50 mM Tris-HCl (pH 7.5), 2 mM EDTA, 0.15 M NaCl, 1% Triton X-100, and cOmplete protease inhibitor cocktail (Roche). Supernatants were collected after 30 s of sonication, and 30 min centrifugation at 17000×g, and protein concentration was measured using Pierce bicinchoninic acid (BCA) protein assay kit (Thermo Fischer Scientific). […] Chemiluminescent signal was detected using anti-rabbit and anti-mouse HRP-IgG secondary antibodies (Southern Biotech, 4030–05, LOT A2718-MM00 and 1030–05, LOT L3919-XE81B respectively) and ECL detection reagent (Cytiva Amersham). Protein quantification based on band densitometry was performed in Quantity One and Image Lab (BioRad)."}, "[5]": {"biological_target": "T3, TXNRD1 (Homo sapiens, UniProt Q16881)", "T3 construct": "RX1 probe that specifically reports upon TXNRD1 enzymatic activity in live cells; endogenous in cells; host or cells: A549", "T3 sequence (Q16881 151-649 limits assumed)": "T1 sequence (Q16881 1-499 isoform Q16881-5)", "assay": "Cellular TXNRD1 assay with RX1 probe in A549 cells", "format": "cell-based", "conditions": "A549, 4 h incubation; RSL3 and ML162 at 1 μM or higher", "procedure": "Cellular TXNRD1 assay—20,000 or 10,000 A549 cells (for 4 h or 12 h and 24 h compound incubation respectively) were seeded in 96-well plates (microplates, 96 well, F-bottom, black, clear bottom, ViewPlateTM-96 F TC, PerkinElmer), in a total volume of 100 μL full DMEM (supplemented with 10% FBS and 100 nM Na2SeO3). […] The cells were subsequently incubated for the respective mentioned time, washed once with full DMEM and fresh, full DMEM, containing 75 μM RX1 and 0.75% DMSO, was added and the first fluorescent measurement was conducted immediately (timepoint = 0) using a Tecan Infinite M200 plate reader (ex/em 355/520). To follow the kinetic activation of RX1, a fluorescent measurement was done every hour for 6 h. Between measurements, cells were stored at 37 °C and 5% CO2. As a control, cells treated with compounds, but not with RX1, just the respective DMSO content, were used for background fluorescent. To determine how the cells were viable throughout the RX1 assay, the control cells were used for a viability measurement, using CellTiter-Glo® Luminescent Cell Viability Assay, after the final fluorescent measurement. For final data analysis, raw data was processed using Microsoft Excel and GraphPad Prism. In brief, the slope of the activated RX1 fluorescence increase was in each case calculated and normalized, using the viability measurement of the control cells."}, "[6]": {"tested_on": "A549 cells", "assay": "Cytotoxicity assay, A549 cells", "format": "cell-based, human", "experimental": "Cell culture—H1975 and A549 cells were cultured in RPMI-1640 medium (HyClone) with Earle's salts supplemented and penicillin/streptomycin (100 μg/ml), while HT1080 cells were cultured in MEM medium for Fig. 2 experiments. For all other cellular experiments, A549 cells were cultured in DMEM 4.5 g/L glucose medium (Gibco), and H1975 cells in RPMI-1640 ATCC Modification (Gibco). Cell cultures were maintained at 37 °C in 5% CO2 in a medium containing 10% fetal bovine serum (FBS) (GE Healthcare, A15-102 for Fig. 2 experiments and Sigma, F7524 for all others). Experiments were performed with or without supplementation with 100 nM sodium selenite as described.\nCytotoxicity assays— Cells were seeded in a 96-well plate at the density of 3 × 10^3 per well and allowed to adhere overnight. After which, cells were treated with various concentrations of compound for the indicated times, whereupon cell viability was determined using Cell Quanti-Blue™ Cell Viability Assay Kits (Nordic Diagnostica, CQBL-10K). Briefly, QUANTI-Blue Reagent (10 μL) was added to each well, incubated at 37 °C in 5% CO2 for 3 h, and then the plates were measured at 540nm/600 nm (Ex/Em) using the Tecan Microplate Reader (Morrisville NC, USA)."}, "[7]": {"biological_target": "T1, TXNRD1", "assay": "nano differential scanning fluorimetry, TXNRD1", "format": "binding", "conditions": "100 μM compound", "experimental": "Nano differential scanning fluorimetry—Real-time monitoring of fluorescence emission at 330 nm and 350 nm (excitation wavelength: 280 nm) and backscattering absorbance of GPX4 and TXNRD1 samples in the presence of compound was performed using a NanoTemper Prometheus NT.48 instrument. […] Standard capillaries were used, and temperature was increased from 25 to 95 °C with a ramp rate of 4.0 °C/min. Three biological replicates were carried out for each condition, and their means and standard deviations are depicted."}, "[8]": {"parameters": "method as in PMID 29444979", "conditions": "given at high doses to mice; cited from earlier work"}, "[9]": {"tested_on": "A549 cells", "assay": "A549 viability in cellular TXNRD1 (RX1) experiments", "conditions": "A549, 4 h, Extended Data Fig. 3A", "procedure": "Cellular TXNRD1 assay—20,000 or 10,000 A549 cells (for 4 h or 12 h and 24 h compound incubation respectively) were seeded in 96-well plates (microplates, 96 well, F-bottom, black, clear bottom, ViewPlateTM-96 F TC, PerkinElmer), in a total volume of 100 μL full DMEM (supplemented with 10% FBS and 100 nM Na2SeO3). The cells were incubated for 16 h at 37 °C and 5% CO2, followed by media change and addition of indicated compounds at respective concentrations (0.1 μM–20 μM), including 0.6% DMSO. The cells were subsequently incubated for the respective mentioned time, washed once with full DMEM and fresh, full DMEM, containing 75 μM RX1 and 0.75% DMSO, was added and the first fluorescent measurement was conducted immediately (timepoint = 0) using a Tecan Infinite M200 plate reader (ex/em 355/520). To follow the kinetic activation of RX1, a fluorescent measurement was done every hour for 6 h. Between measurements, cells were stored at 37 °C and 5% CO2. As a control, cells treated with compounds, but not with RX1, just the respective DMSO content, were used for background fluorescent. To determine how the cells were viable throughout the RX1 assay, the control cells were used for a viability measurement, using CellTiter-Glo® Luminescent Cell Viability Assay, after the final fluorescent measurement. For final data analysis, raw data was processed using Microsoft Excel and GraphPad Prism. In brief, the slope of the activated RX1 fluorescence increase was in each case calculated and normalized, using the viability measurement of the control cells.\nExtended Data Figure 3: A549 cytotoxicity in cellular TXNRD1 experiments following final\nA) Cell viability following 4-hour incubation with\ncompounds; B) Viability following 12-hour incubation with compounds; C) Viability\nfollowing 24 -hour incubation with compounds. The cell viability in was in each case measured\nusing the Cell Quanti-BlueTM Cell Viability Assay Kit and the data are presented as mean ±\ns.d. of n = 3 biological replicates, each containing n = 3 technical replicates."}},
  "data": [
    {"compound": "COc1ccc([N+](=O)[O-])c(S(=O)(=O)c2ccc(Cl)cc2)n1", "note": "[TRi-1]", "values": [
      {"measurement": "Effect on GPX4 thermostability", "setting": "[1]", "value": "no major effect"},
      {"measurement": "Specificity among GPX1, GPX4, GR and TXNRD1", "setting": "[2]; pure enzyme systems, Fig. 1A lower panels", "value": "specific inhibitors of TXNRD1"},
      {"measurement": "IC50", "setting": "[2]; recombinant TXNRD1, Fig. 1A assay conditions, read-out: IC50 TXNRD1 inhibition", "value": "~0.5", "unit": "µM"},
      {"measurement": "MDA and Ptgs2 levels", "setting": "[3]", "value": "increase MDA and Ptgs2 levels"},
      {"measurement": "GPX4 expression levels compared to DMSO controls (immunoblot)", "setting": "[4]", "value": "no obvious changes in its expression levels"},
      {"measurement": "Effect on cellular TXNRD1 activity (RX1) at 4 h", "setting": "[5]", "value": "effectively inhibit cellular TXNRD1 activity"},
      {"measurement": "IC50", "setting": "[6]; 24 h, media not supplemented with selenium", "value": "~20", "unit": "µM"},
      {"measurement": "Effect of ferrostatin-1 or MitoTEMPO co-treatment on cytotoxicity", "setting": "[6]; A549, 24 h, no selenium supplementation", "value": "co-treatment with neither ferrostatin-1 nor MitoTEMPO had any effect"},
      {"measurement": "Cell viability", "setting": "[6]; A549, 24 h, under all tested conditions (with/without Se, blockers)", "value": "about 40%"},
      {"measurement": "Difference in response profiles between cell lines", "setting": "[6]; A549, H1975 and HT1080, 24 h", "value": "no stark difference in response profiles"},
      {"measurement": "Thermal stabilization of TXNRD1", "setting": "[7]", "value": "displaying thermal stabilization of the enzyme"},
      {"measurement": "Antitumoral effect in mice", "setting": "[8]", "value": "antitumoral properties"},
      {"measurement": "Toxicity to mice", "setting": "[8]", "value": "lack overt toxicity"},
      {"measurement": "Effect on cell viability at 4 h", "setting": "[9]", "value": "no overt effects on viability"}
    ]}
  ]
}
